What was measured:
[1] = tested on: Plasmodium falciparum; test: Antiplasmodial activity against CQ-resistant Plasmodium falciparum K1; assay type: functional, organism-based
[2] = tested on: Plasmodium falciparum; test: Antiplasmodial activity against CQ-resistant Plasmodium falciparum W2 assessed as inhibition of parasite growth; assay type: functional, organism-based
[3] = tested on: Plasmodium falciparum; test: Antiplasmodial activity against CQ-sensitive Plasmodium falciparum 3D7; assay type: functional, organism-based; details: for IC50: Plasmodium falciparum, 3D7
[4] = Inhibition of beta-hematin formation; assay type: physicochemical
[5] = tested on: Plasmodium falciparum; test: Antiplasmodial activity against CQ-resistant Plasmodium falciparum Dd2; assay type: functional, organism-based; details: Plasmodium falciparum, Dd2

IC50 [3] [nM] | SMILES | IC50 [2] [nM] | further results
 | O=C(N[C@H](c1ccccc1)[C@H](O)C(=O)NCc1cn(-c2ccccc2Nc2ccnc3cc(Cl)ccc23)nn1)c1ccccc1 | 280 | IC50 [1]: 390 nM
 | Cc1ccc(N2C(=O)[C@H](NC(=O)NCCCCNc3ccnc4cc(Cl)ccc34)[C@@H]2/C=C/c2ccccc2)cc1 | 42 | 
12 | C=C[C@H]1CN2CC[C@H]1C[C@H]2[C@H](OC(=O)CNC(=O)c1cn2c3c(c(N4CCN(C)CC4)c(F)cc3c1=O)CC[C@H]2C)c1ccnc2ccc(OC)cc12 |  | 
 | Cc1ccc(N2C(=O)[C@H](NC(=O)CCCNc3ccnc4cc(Cl)ccc34)[C@@H]2/C=C/c2ccccc2)cc1 | 80 | 
 | CN(C)c1ccc(/C=C/C(=O)c2cccc(Nc3ccnc4cc(Cl)ccc34)c2)cc1 |  | inhibition (INH) [4]: 94%
 | O=C(/C=C/c1cccc(F)c1)c1cccc(Nc2ccnc3cc(Cl)ccc23)c1 |  | inhibition (INH) [4]: 94%
< 1000 | CCc1c(OCc2ccccc2)c(=O)ccn1CCCCNc1ccnc2cc(Cl)ccc12 |  | 
 | O=C(N[C@H](c1ccccc1)[C@H](O)C(=O)OCCCNc1ccnc2cc(Cl)ccc12)c1ccccc1 | 130 | 
 | Cc1ccc(N2C(=O)[C@@H](NCCNc3ccnc4cc(Cl)ccc34)[C@H]2/C=C/c2ccccc2)cc1 | 80 | 
 | C[C@H]1[C@@H](OCCN(CCCNc2ccnc3cc(Cl)ccc23)CCO[C@H]2O[C@@H]3O[C@@]4(C)CC[C@H]5[C@H](C)CC[C@@H]([C@H]2C)[C@@]35OO4)O[C@@H]2O[C@@]3(C)CC[C@H]4[C@H](C)CC[C@@H]1[C@@]24OO3 |  | Activity [3]: 9 nM
 | Cc1ccc(N2C(=O)[C@H](NC(=O)NCCNc3cccc4cc(Cl)ccc34)[C@@H]2/C=C/c2ccccc2)cc1 | 42 | 
 | CC(=O)O[C@H](C(=O)OCCCNc1ccnc2cc(Cl)ccc12)[C@H](NC(=O)c1ccccc1)c1ccccc1 | 160 | 
< 100 | CN(C)c1ccc(/C=C2\SC(=S)N(CCCCNc3ccnc4cc(Cl)ccc34)C2=O)cc1 |  | 
4 | Cc1c(O)c(=O)ccn1CCCCCCNc1ccnc2cc(Cl)ccc12 |  | 
 | C[C@H]1[C@@H](OCC[N+]2(CCO[C@H]3O[C@@H]4O[C@@]5(C)CC[C@H]6[C@H](C)CC[C@@H]([C@H]3C)[C@@]46OO5)CCN(CCNc3ccnc4cc(Cl)ccc34)CC2)O[C@@H]2O[C@@]3(C)CC[C@H]4[C@H](C)CC[C@@H]1[C@@]24OO3 |  | Activity [3]: 30 nM
 | O=C(NCCCNc1ccnc2cc(Cl)ccc12)C(=O)N[C@@H]1C(=O)N(C2CCCCC2)[C@@H]1/C=C/c1ccccc1 | 34 | 
 | CCCN1CNc2cc(Nc3ccnc4cc(Cl)ccc34)ccc2C1 | 130 | IC50 [1]: 220 nM
 | Clc1ccc2c(Nc3ccc4c(c3)NCN(Cc3ccccc3)C4)ccnc2c1 | 130 | IC50 [1]: 220 nM
 | O=C(NCCCCCCNc1ccnc2cc(Cl)ccc12)N[C@H]1C(=O)N(C2CCCCC2)[C@H]1/C=C/c1ccccc1 | 42 | 
 | O=C(NCCCNc1cccc2cc(Cl)ccc12)N[C@H]1C(=O)N(C2CCCCC2)[C@H]1/C=C/c1ccccc1 | 42 | 
 | Cc1ccc(N2C(=O)[C@H](NC(=O)NCCCNc3cccc4cc(Cl)ccc34)[C@@H]2/C=C/c2ccccc2)cc1 | 42 | 
< 1000 | Cc1c(O)c(=O)ccn1CCCCNc1ccnc2cc(Cl)ccc12 |  | 
 | Cc1ccc(N2C(=O)[C@@H](NC(=O)C(=O)NCCCCNc3ccnc4cc(Cl)ccc34)[C@H]2/C=C/c2ccccc2)cc1 | 34 | 
 | O=C(NCCNc1cccc2cc(Cl)ccc12)N[C@H]1C(=O)N(C2CCCCC2)[C@H]1/C=C/c1ccccc1 | 42 | 
< 1000 | COc1c(C)n(CCCCCCNc2ccnc3cc(Cl)ccc23)ccc1=O |  | 
 | CCN1CNc2cc(Nc3ccnc4cc(Cl)ccc34)ccc2C1 | 130 | IC50 [1]: 220 nM

IC50 [3] [nM] | SMILES | IC50 [2] [nM] | further results
< 1000 | COc1c(C)n(CCCCNc2ccnc3cc(Cl)ccc23)ccc1=O |  | 
< 1000 | CCc1c(O)c(=O)ccn1CCCCCCNc1ccnc2cc(Cl)ccc12 |  | 
< 1000 | CCc1c(O)c(=O)ccn1CCCCNc1ccnc2cc(Cl)ccc12 |  | 
16 | C=C[C@H]1CN2CC[C@H]1C[C@H]2[C@H](OC(=O)C(C)NC(=O)c1cn(CC)c2ncccc2c1=O)c1ccnc2ccc(OC)cc12 (stereo partly drawn) |  | 
 | O=C(NCCCCCCNc1ccnc2cc(Cl)ccc12)C(=O)N[C@@H]1C(=O)N(C2CCCCC2)[C@@H]1/C=C/c1ccccc1 | 34 | 
 | O=C(NCCCCNc1ccnc2cc(Cl)ccc12)C(=O)N[C@@H]1C(=O)N(C2CCCCC2)[C@@H]1/C=C/c1ccccc1 | 34 | 
 | O=C(N[C@H](c1ccccc1)[C@H](O)C(=O)NCc1cn(CCNc2ccnc3cc(Cl)ccc23)nn1)c1ccccc1 | 280 | IC50 [1]: 390 nM
 | O=C(N[C@H](c1ccccc1)[C@H](O)C(=O)NCc1cn(CNc2ccnc3cc(Cl)ccc23)nn1)c1ccccc1 | 280 | IC50 [1]: 390 nM
 | COc1cc(NC(C)CCCNC2CCC3(CC2)OOC2(OO3)C3CC4CC(C3)CC2C4)c2ncccc2c1 (stereo not drawn) | 21 | 
 | Cc1ccc(N2C(=O)[C@@H](NC(=O)C(=O)NCCNc3ccnc4cc(Cl)ccc34)[C@H]2/C=C/c2ccccc2)cc1 | 34 | 
< 100 | COc1cc(/C=C2\SC(=S)N(CCCCNc3ccnc4cc(Cl)ccc34)C2=O)cc(OC)c1OC |  | 
< 1000 | CCc1c(OCc2ccccc2)c(=O)ccn1CCCCCCNc1ccnc2cc(Cl)ccc12 |  | 
< 1000 | CCc1c(O)c(=O)ccn1CCCNc1ccnc2cc(Cl)ccc12 |  | 
12 | C=C[C@H]1CN2CC[C@H]1C[C@H]2[C@H](OC(=O)CNC(=O)c1cn(C2CC2)c2nc(N3CCN(CC)CC3)c(F)cc2c1=O)c1ccnc2ccc(OC)cc12 |  | 
< 100 | COc1cc(/C=C2\SC(=S)N(CCNc3ccnc4cc(Cl)ccc34)C2=O)cc(OC)c1OC |  | 
 | Cc1ccc(N2C(=O)[C@@H](NC(=O)C(=O)NCCCCCCNc3ccnc4cc(Cl)ccc34)[C@H]2/C=C/c2ccccc2)cc1 | 34 | 
 | Cc1ccc(N2C(=O)[C@H](NC(=O)CCCCCNc3ccnc4cc(Cl)ccc34)[C@@H]2/C=C/c2ccccc2)cc1 | 80 | 
 | Cc1ccc(N2C(=O)[C@@H](NC(=O)C(=O)NCCCNc3ccnc4cc(Cl)ccc34)[C@H]2/C=C/c2ccccc2)cc1 | 34 | 
< 100 | COc1cc(/C=C2\SC(=S)N(CCCNc3ccnc4cc(Cl)ccc34)C2=O)cc(OC)c1OC |  | 
 | O=C(N[C@H](c1ccccc1)[C@H](O)C(=O)NCc1cn(-c2cccc(Nc3ccnc4cc(Cl)ccc34)c2)nn1)c1ccccc1 | 280 | IC50 [1]: 390 nM
< 100 | O=C1/C(=C/c2ccc([N+](=O)[O-])cc2)SC(=S)N1CCCNc1ccnc2cc(Cl)ccc12 |  | 
< 100 | O=C1/C(=C/c2ccccc2[N+](=O)[O-])SC(=S)N1CCCNc1ccnc2cc(Cl)ccc12 |  | 
 | O=C(NCCCCNc1ccnc2cc(Cl)ccc12)N[C@H]1C(=O)N(C2CCCCC2)[C@H]1/C=C/c1ccccc1 | 42 | 
12 | C=C[C@H]1CN2CC[C@H]1C[C@H]2[C@H](OC(=O)C(C)NC(=O)c1cn(CC)c2cc3c(cc2c1=O)OCO3)c1ccnc2ccc(OC)cc12 (stereo partly drawn) |  | 
 | O=C(NCCNc1ccnc2cc(Cl)ccc12)C(=O)N[C@@H]1C(=O)N(C2CCCCC2)[C@@H]1/C=C/c1ccccc1 | 34 | 

SMILES | IC50 [3] [nM] | IC50 [2] [nM] | further results
C=C[C@H]1CN2CC[C@H]1C[C@H]2[C@H](O)c1ccnc2ccc(OC)cc12 [QUININE] | 18 |  | 
O=C(/C=C/c1ccccc1)N[C@@H](CCCCCC(=O)NO)C(=O)Nc1cccc2cccnc12 | 13 |  | IC50 [5]: 33 nM
CN(C)c1ccc(C(=O)N[C@@H](CCCCCC(=O)NO)C(=O)Nc2cccc3cccnc23)cc1 | 13 |  | IC50 [5]: 33 nM
